Measured values taken from PubChem BioAssay (NCI).
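Grown in 96-well plates, cells were treated for 48 hours with each compound at five concentrations. Insufficient inhibition: endpoint recorded as highest concentration tested. GI50 marks 50% less growth. TGI marks complete inhibition of growth.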

Key:
Assay in all cases: NCI tumour cell line growth inhibition, 48 h
[1] = test system: 786-0 renal
[2] = test system: A498 renal
[3] = test system: A549 NSCLC
[4] = test system: ACHN renal
[5] = test system: BT-549 breast
[6] = test system: CCRF-CEM leukemia
[7] = test system: COLO 205 colon
[8] = test system: DU-145 prostate
[9] = test system: HCC-2998 colon
[10] = test system: HCT-116 colon
[11] = test system: HCT-15 colon
[12] = test system: HL-60(TB) leukemia
[13] = test system: HOP-62 NSCLC
[14] = test system: HOP-92 NSCLC
[15] = test system: HT29 colon
[16] = test system: IGROV1 ovarian
[17] = test system: K-562 leukemia
[18] = test system: KM12 colon
[19] = test system: LOX IMVI melanoma
[20] = test system: M14 melanoma
[21] = test system: MALME-3M melanoma
[22] = test system: MCF7 breast
[23] = test system: MDA-MB-231 breast
[24] = test system: MDA-MB-435
[25] = test system: MOLT-4 leukemia
[26] = test system: NCI-H226 lung
[27] = test system: NCI-H23 lung
[28] = test system: NCI-H460 lung
[29] = test system: NCI-H522 lung
[30] = test system: NCI/ADR-RES ovarian
[31] = test system: OVCAR-3 ovarian
[32] = test system: OVCAR-4 ovarian
[33] = test system: OVCAR-5 ovarian
[34] = test system: OVCAR-8 ovarian
[35] = test system: PC-3 prostate
[36] = test system: RPMI-8226 leukemia
[37] = test system: RXF 393 renal
[38] = test system: SF-268 CNS
[39] = test system: SF-295 CNS
[40] = test system: SF-539 CNS
[41] = test system: SK-MEL-2 melanoma
[42] = test system: SK-MEL-28 melanoma
[43] = test system: SK-MEL-5 melanoma
[44] = test system: SK-OV-3 ovarian
[45] = test system: SN12C renal
[46] = test system: SNB-19 CNS
[47] = test system: SNB-75 CNS
[48] = test system: SR leukemia
[49] = test system: SW-620 colon
[50] = test system: T-47D breast
[51] = test system: TK-10 renal
[52] = test system: U251 CNS
[53] = test system: UACC-257 melanoma
[54] = test system: UACC-62 melanoma
[55] = test system: UO-31 renal

COc1cc(-c2cncn2-c2ccc(-c3nc4ccc(F)cc4s3)cc2)ccc1F
GI50 [1]: 36.1 µM | TGI [1]: > 100 µM | GI50 [2]: 0.0432 µM | TGI [2]: 16.9 µM | GI50 [3]: 12.3 µM | TGI [3]: > 100 µM | GI50 [4]: 29.1 µM | TGI [4]: > 100 µM | GI50 [5]: 11.5 µM | TGI [5]: 79 µM | GI50 [6]: 6.92 µM | TGI [6]: > 100 µM | GI50 [7]: 56.8 µM | TGI [7]: > 100 µM | GI50 [8]: 14.3 µM | TGI [8]: 73.3 µM | GI50 [9]: > 100 µM | TGI [9]: > 100 µM | GI50 [10]: 4.36 µM | TGI [10]: 38.7 µM | GI50 [11]: 82.3 µM | TGI [11]: > 100 µM | GI50 [12]: 2.5 µM | TGI [12]: 7.37 µM | GI50 [13]: 40.7 µM | TGI [13]: > 100 µM | GI50 [14]: 5.47 µM | TGI [14]: 91.8 µM | GI50 [15]: 10.8 µM | TGI [15]: > 100 µM | GI50 [16]: 15.4 µM | TGI [16]: 47.7 µM | GI50 [17]: 3.93 µM | TGI [17]: > 100 µM | GI50 [18]: 6.4 µM | TGI [18]: > 100 µM | GI50 [19]: 35.9 µM | TGI [19]: > 100 µM | GI50 [20]: 33.4 µM | TGI [20]: > 100 µM | GI50 [21]: 11.1 µM | TGI [21]: > 100 µM | GI50 [22]: 23.5 µM | TGI [22]: > 100 µM | GI50 [23]: 32.2 µM | TGI [23]: > 100 µM | GI50 [24]: 17.1 µM | TGI [24]: > 100 µM | GI50 [25]: 3.41 µM | TGI [25]: > 100 µM | GI50 [26]: 49.3 µM | TGI [26]: > 100 µM | GI50 [27]: 8.25 µM | TGI [27]: > 100 µM | GI50 [28]: 5.7 µM | TGI [28]: 20.7 µM | GI50 [29]: 9.9 µM | TGI [29]: 37.2 µM | GI50 [30]: 30.6 µM | TGI [30]: > 100 µM | GI50 [31]: 5.71 µM | TGI [31]: 37.3 µM | GI50 [32]: 11.4 µM | TGI [32]: > 100 µM | GI50 [33]: > 100 µM | TGI [33]: > 100 µM | GI50 [34]: 15.2 µM | TGI [34]: > 100 µM | GI50 [35]: 3.47 µM | TGI [35]: > 100 µM | GI50 [36]: 4.11 µM | TGI [36]: > 100 µM | GI50 [37]: 13.5 µM | TGI [37]: > 100 µM | GI50 [38]: 31.2 µM | TGI [38]: > 100 µM | GI50 [39]: 12.7 µM | TGI [39]: > 100 µM | GI50 [40]: 75.9 µM | TGI [40]: > 100 µM | GI50 [41]: 39.7 µM | TGI [41]: > 100 µM | GI50 [42]: 35.1 µM | TGI [42]: > 100 µM | GI50 [43]: 12.1 µM | TGI [43]: > 100 µM | GI50 [44]: > 100 µM | TGI [44]: > 100 µM | GI50 [45]: 31.9 µM | TGI [45]: > 100 µM | GI50 [46]: > 100 µM | TGI [46]: > 100 µM | GI50 [47]: 20.6 µM | TGI [47]: 52.2 µM | GI50 [48]: 4.99 µM | TGI [48]: > 100 µM | GI50 [49]: 7.81 µM | TGI [49]: > 100 µM | GI50 [50]: 7.98 µM | TGI [50]: > 100 µM | GI50 [51]: 38.8 µM | TGI [51]: > 100 µM | GI50 [52]: 12.6 µM | TGI [52]: > 100 µM | GI50 [53]: 4.11 µM | TGI [53]: > 100 µM | GI50 [54]: 8.67 µM | TGI [54]: > 100 µM | GI50 [55]: 16.5 µM | TGI [55]: > 100 µM
